Results as given in the NIST ThermoML archive (doi:10.1016/j.fluid.2014.10.004).

Key:
[1] = xn = mol fraction of the nth substance listed; conditions: 101.3 kPa, Liquid, Sing-around technique in a fixed-path interferometer
[2] = refractive index (Na D-line) (dimensionless); xn = mol fraction of the nth substance listed; conditions: 101.3 kPa, Liquid, Standard Abbe refractometry

C[N+](=O)[O-] [nitromethane] + ClCCCCCl
x2 = 0
Conditions | refractive index, 298.15 K | refractive index, 308.15 K | refractive index, 318.15 K | speed of sound, 298.15 K [m/s] | speed of sound, 308.15 K [m/s] | speed of sound, 318.15 K [m/s]
[1] | – | – | – | 1321.5 | 1281.9 | 1242.5
[2] | 1.37955 | 1.37482 | 1.37001 | – | – | –

CCCCCCl [1-chloropentane] + C[N+](=O)[O-]
Conditions | refractive index, 298.15 K | refractive index, 308.15 K | refractive index, 318.15 K | speed of sound, 298.15 K [m/s] | speed of sound, 308.15 K [m/s] | speed of sound, 318.15 K [m/s]
[1], x1 = 0.1043 | – | – | – | 1276 | 1237 | 1197.9
[1], x1 = 0.1721 | – | – | – | 1253.5 | 1214.4 | 1175.3
[1], x1 = 0.2575 | – | – | – | 1231.2 | 1192.3 | 1153.4
[1], x1 = 0.3466 | – | – | – | 1213.7 | 1174.8 | 1135.8
[1], x1 = 0.4525 | – | – | – | 1198.2 | 1159.2 | 1120.1
[1], x1 = 0.5435 | – | – | – | 1188.6 | 1149.2 | 1110.1
[1], x1 = 0.6864 | – | – | – | 1177.1 | 1137.8 | 1098.5
[1], x1 = 0.8325 | – | – | – | 1169.4 | 1130.1 | 1090.8
[1], x1 = 0.8859 | – | – | – | 1167.6 | 1128.1 | 1088.9
[1], x1 = 1 | – | – | – | 1164.2 | 1124.9 | 1085.8
[2], x1 = 0.1044 | 1.38453 | 1.37934 | 1.37439 | – | – | –
[2], x1 = 0.1721 | 1.38722 | 1.3821 | 1.377 | – | – | –
[2], x1 = 0.2575 | 1.39056 | 1.38539 | 1.38037 | – | – | –
[2], x1 = 0.3466 | 1.39367 | 1.38858 | 1.38354 | – | – | –
[2], x1 = 0.4525 | 1.39687 | 1.39181 | 1.38674 | – | – | –
[2], x1 = 0.5435 | 1.39934 | 1.39422 | 1.38916 | – | – | –
[2], x1 = 0.6864 | 1.40308 | 1.39792 | 1.39268 | – | – | –
[2], x1 = 0.8325 | 1.40646 | 1.4012 | 1.396 | – | – | –
[2], x1 = 0.8859 | 1.4076 | 1.40244 | 1.3972 | – | – | –
[2], x1 = 1 | 1.41015 | 1.40501 | 1.39984 | – | – | –

ClCCCl [1,2-dichloroethane] + C[N+](=O)[O-]
x1 = 1
Conditions | refractive index, 298.15 K | refractive index, 308.15 K | refractive index, 318.15 K | speed of sound, 298.15 K [m/s] | speed of sound, 308.15 K [m/s] | speed of sound, 318.15 K [m/s]
[1] | – | – | – | 1194.4 | 1156.1 | 1117.8
[2] | 1.44206 | 1.43661 | 1.43109 | – | – | –
